Test results reported in article PMC10509784 (RSC Advances, 2023).
Like-named read-outs stand apart in the source and are kept apart here.

Assays:
Type in all cases: cell-based
Wi-38 = assay: MTT cytotoxicity on normal fibroblasts; details: Homo sapiens, WI-38, read-out: Wi-38 IC50
MCF-7 = assay: MTT cytotoxicity on MCF-7 breast cancer cells
MDA-MB 231 = assay: MTT cytotoxicity on MDA-MB 231 breast cancer cells; details: Homo sapiens, MDA-MB-231, read-out: MDA-MB 231 IC50
P53 [1] = assay: Quantitative detection of P53 expression in treated MCF-7 cells; details: MCF-7, vs control, mean ± SEM
BAX [2] = assay: BAX expression in treated MCF-7 cells; details: for Relative fold change in BAX expression: MCF-7, mean ± SEM; for overexpression of apoptosis regulator BAX: tested cancer cell lines, MCF-7 and MDA-MB 231
Bcl-2 [3] = assay: Bcl-2 expression in treated MCF-7 cells; details: for Relative fold change in Bcl-2 expression: MCF-7, mean ± SEM; for diminished levels of Bcl-2: tested cancer cell lines, MCF-7 and MDA-MB 231
caspase 3/7 [4] = assay: Caspase 3/7 activation assay in MCF-7 cells; details: for Relative fold activation of caspase 3/7: MCF-7 treated with IC50, mean ± SEM; for activation of caspase 3/7: treated breast cancer cell lines (MCF-7 and MDA-MB 231), IC50s
P53 [5] = assay: Quantitative detection of P53 expression in treated MDA-MB 231 cells; details: MDA-MB 231, vs control, mean ± SEM
BAX [6] = assay: BAX expression in treated MDA-MB 231 cells; details: MDA-MB 231, mean ± SEM
Bcl-2 [7] = assay: Bcl-2 expression in treated MDA-MB 231 cells; details: MDA-MB 231, mean ± SEM
caspase 3/7 [8] = assay: Caspase 3/7 activation assay in MDA-MB 231 cells; details: MDA-MB 231 treated with IC50, mean ± SEM
[9] = Homo sapiens, MCF7, read-out: MCF-7 IC50, MTT, mean ± SEM
[10] = read-out: MCF-7 IC50, MTT, mean ± SEM

Structure (SMILES)	IC50 (Wi-38)	IC50 (MCF-7; [9])	IC50 (MCF-7; [10])	IC50 (MDA-MB 231)	Relative fold change in the P53 expression (P53 [1])	Relative fold change in BAX expression (BAX [2])	overexpression of apoptosis regulator BAX (BAX [2])	Relative fold change in Bcl-2 expression (Bcl-2 [3])	diminished levels of Bcl-2 (Bcl-2 [3])	Relative fold activation of caspase 3/7 (caspase 3/7 [4])	activation of caspase 3/7 (caspase 3/7 [4])	Relative fold change in the P53 expression (P53 [1]; listed as doxorubicin)	Relative fold change in the P53 expression (P53 [5])	Relative fold change in the P53 expression (P53 [5]; listed as doxorubicin)	Relative fold change in BAX expression (BAX [6])	Relative fold change in Bcl-2 expression (Bcl-2 [7])	Relative fold activation of caspase 3/7 (caspase 3/7 [8])
O=C(NNC(=S)Nc1ccccc1)c1ccc(NC(=O)C2(O)CCCCC2)cc1 [Compound 17, 1-Hydroxy-N-(4-(2-(phenylcarbamothioyl)hydrazine-1-carbonyl)phenyl)cyclohexane-1-carboxamide]	1540 ± 122 nM	~80 nM	82 ± 2 nM	518 ± 81 nM	4.377 ± 0.144 fold	3.042 ± 0.0365 fold	2.3–3.3 folds	0.201 ± 0.0075 fold	0.13–0.49 folds	3.677 ± 0.0145 fold	2.6–4.1 folds	–	–	–	–	–	–
CCOC(=O)c1ccc(NC(=O)C2(OC(=O)c3ccccc3C)CCCCC2)cc1 [Compound 9, 1-((4-(Ethoxycarbonyl)phenyl)carbamoyl)cyclohexyl-2-methylbenzoate]	608 ± 12 nM	440 ± 6 nM	–	445 ± 4 nM	–	–	–	–	–	–	–	–	–	–	–	–	–
COc1cccc2c1C(=O)c1c(O)c3c(c(O)c1C2=O)C[C@@](O)(C(=O)CO)C[C@@H]3O[C@H]1C[C@H](N)[C@H](O)[C@H](C)O1 [Doxorubicin, reference compound]	272 ± 53 nM	478 ± 76 nM	–	2830 ± 173 nM	2.148 ± 0.174 fold	1.556 ± 0.054 fold	–	0.592 ± 0.031 fold	–	1.881 ± 0.028 fold	–	2.1 fold	1.623 ± 0.122 fold	1.6 fold	1.232 ± 0.019 fold	0.798 ± 0.044 fold	1.272 ± 0.074 fold
NNC(=O)c1ccc(NC(=O)C2(O)CCCCC2)cc1 [Compound 16, N-(4-(Hydrazinecarbonyl)phenyl)-1-hydroxycyclohexane-1-carboxamide]	3327 ± 32 nM	968 ± 36 nM	–	1030 ± 36 nM	–	–	–	–	–	–	–	–	–	–	–	–	–
CCOC(=O)c1ccc(N2C(=O)C(c3ccccc3)N(c3ccccc3)C2=O)cc1 (centres unmarked) [Compound 8, Ethyl-4-(2,5-dioxo-3,4-diphenylimidazolidin-1-yl)benzoate]	953 ± 37 nM	78 ± 72 nM	–	146 ± 34 nM	4.810 ± 0.1014 fold	3.195 ± 0.082 fold	2.3–3.3 folds	0.163 ± 0.0035 fold	0.13–0.49 folds	3.763 ± 0.011 fold	2.6–4.1 folds	–	3.733 ± 0.023 fold	–	2.479 ± 0.030 fold	0.454 ± 0.010 fold	2.945 ± 0.0885 fold
CCOC(=O)c1ccc(NC(=O)C2(OC(=O)c3ccc(NS(=O)(=O)c4ccccc4)cc3)CCCCC2)cc1 [Compound 12, 1-((4-(Ethoxycarbonyl)phenyl)carbamoyl)cyclohexyl-4-(phenylsulfonamido)benzoate]	633 ± 1 nM	65 ± 50 nM	–	135 nM	5.168 ± 0.0676 fold	3.337 ± 0.1485 fold	2.3–3.3 folds	0.129 ± 0.0027 fold	0.13–0.49 folds	4.105 ± 0.0795 fold	2.6–4.1 folds	–	4.312 ± 0.075 fold	–	2.683 ± 0.065 fold	0.376 ± 0.037 fold	3.304 ± 0.0745 fold
CCOC(=O)c1ccc(NC(=O)C2(OC(=O)c3ccc([N+](=O)[O-])cc3)CCCCC2)cc1 [Compound 11, 1-((4-(Ethoxycarbonyl)phenyl)carbamoyl)cyclohexyl 4-nitrobenzoate]	516 ± 11 nM	591 ± 35 nM	–	756 ± 175 nM	–	–	–	–	–	–	–	–	–	–	–	–	–
CCOC(=O)c1ccc(NC(=O)C(c2ccccc2)N(C(=O)c2ccccc2I)c2ccccc2)cc1 (centres unmarked) [Compound 4, Ethyl-4-(2-(2-iodo-N-phenylbenzamido)-2-phenylacetamido)benzoate]	418 ± 33 nM	96 ± 7 nM	–	188 ± 44 nM	4.137 ± 0.0407 fold	2.747 ± 0.1285 fold	2.3–3.3 folds	0.233 ± 0.0017 fold	0.13–0.49 folds	3.113 ± 0.1012 fold	2.6–4.1 folds	–	3.309 ± 0.110 fold	–	2.338 ± 0.021 fold	0.496 ± 0.005 fold	2.618 ± 0.1615 fold
CCOC(=O)c1ccc(NC(=O)C(c2ccccc2)N(C(=O)c2ccccc2[N+](=O)[O-])c2ccccc2)cc1 (centres unmarked) [Compound 5, Ethyl-4-(2-(2-nitro-N-phenylbenzamido)-2-phenylacetamido)benzoate]	570 ± 72 nM	229 ± 42 nM	–	302 ± 24 nM	–	–	–	–	–	–	–	–	–	–	–	–	–
O=C(O)OC1(C(=O)Nc2ccc(C(=O)O)cc2)CCCCC1 [Compound 15, 4-(1-(Carboxyoxy)cyclohexane-1-carboxamido)benzoic acid]	827 ± 4 nM	264 ± 159 nM	–	261 ± 25 nM	–	–	–	–	–	–	–	–	–	–	–	–	–
CCOC(=O)c1ccc(NC(=O)C(c2ccccc2)N(C(=O)c2ccccc2C)c2ccccc2)cc1 (centres unmarked) [Compound 3, Ethyl-4-(2-(2-methyl-N-phenylbenzamido)-2-phenylacetamido)benzoate]	1330 ± 84 nM	~80 nM	86 ± 16 nM	306 ± 14 nM	4.110 ± 0.1014 fold	2.448 ± 0.057 fold	2.3–3.3 folds	0.217 ± 0.006 fold	0.13–0.49 folds	3.470 ± 0.0485 fold	2.6–4.1 folds	–	–	–	–	–	–
CCOC(=O)c1ccc(NC(=O)C2(OC(=O)CNS(=O)(=O)c3ccccc3)CCCCC2)cc1 [Compound 13, Ethyl 4-(1-(2-(phenylsulfonamido)acetoxy)cyclohexanecarboxamido)benzoate]	590 ± 26 nM	142 ± 27 nM	–	513 ± 66 nM	–	–	–	–	–	–	–	–	–	–	–	–	–
CCOC(=O)c1ccc(NC(=O)C(c2ccccc2)N(C(=O)c2cc([N+](=O)[O-])cc([N+](=O)[O-])c2)c2ccccc2)cc1 (centres unmarked) [Compound 6, Ethyl-4-(2-(3,5-dinitro-N-phenylbenzamido)-2-phenylacetamido)benzoate]	538 ± 25 nM	143 ± 16 nM	–	370 ± 94 nM	–	–	–	–	–	–	–	–	–	–	–	–	–
CCOC(=O)c1ccc(NC(=O)C(c2ccccc2)N(C(=O)C(F)(F)F)c2ccccc2)cc1 (centres unmarked) [Compound 2, Ethyl-4-(-phenyl-2-(2,2,2-trifluoro-N-phenylacetamido)acetamido)benzoate]	147 ± 20 nM	369 ± 14 nM	–	472 ± 13 nM	–	–	–	–	–	–	–	–	–	–	–	–	–
CCOC(=O)c1ccc(NC(=O)C2(OC(=O)c3ccc(N=[N+]=[N-])cc3)CCCCC2)cc1 [Compound 10, 1-((4-(Ethoxycarbonyl)phenyl)carbamoyl)cyclohexyl-4-azidobenzoate]	505 ± 1 nM	439 ± 5 nM	–	470 ± 12 nM	–	–	–	–	–	–	–	–	–	–	–	–	–
